Laboratory results reported in US10750743B2, “Pyridazinone herbicides” (E.I. DU PONT DE NEMOURS AND COMPANY, priority 2015, dated 2020).

Tests used:
Type in all cases: in vivo
corn (Zea mays) = test: Test A postemergence application, visual injury rating; conditions: 0 to 100 scale, 0 no effect, 100 complete control
Source text: (§1) Seeds of plant species selected from barnyardgrass (Echinochloa crus-galli), kochia (Kochia scoparia), ragweed (common ragweed, Ambrosia elatior), ryegrass, It. (Italian ryegrass, Lolium multiflorum), foxtail, giant (giant foxtail, Setaria faberii), and pigweed (Amaranthus retroflexus), were planted into a blend of loam soil and sand and treated preemergence with a directed soil spray using test chemicals formulated in a non-phytotoxic solvent mixture which included a surfactant.
(§2) At the same time, plants selected from these weed species and also wheat (Triticum aestivum), corn (Zea mays), blackgrass (Alopecurus myosuroides), and galium (catchweed bedstraw, Galium aparine), were planted in pots containing the same blend of loam soil and sand and treated with postemergence applications of test chemicals formulated in the same manner Plants ranged in height from 2 to 10 cm and were in the one- to two-leaf stage for the postemergence treatment. Treated plants and untreated controls were maintained in a greenhouse for approximately 10 d, after which time all treated plants were compared to untreated controls and visually evaluated for injury. Plant response ratings, summarized in Table A, are based on a 0 to 100 scale where 0 is no effect and 100 is complete control. A dash (-) response means no test result.

[1] = tested on: foxtail, giant (giant foxtail, Setaria faberii); test: as above; conditions: 0 to 100 scale, 0 no effect, 100 complete control
Source text: as §1, §2

[2] = tested on: ragweed (common ragweed, Ambrosia elatior); test: as above; conditions: 0 to 100 scale, 0 no effect, 100 complete control
Source text: as §1, §2

[3] = tested on: ryegrass, It. (Italian ryegrass, Lolium multiflorum); test: as above; conditions: 0 to 100 scale, 0 no effect, 100 complete control
Source text: as §1, §2

kochia (Kochia scoparia) [4] = test: as above; conditions: 0 to 100 scale, 0 no effect, 100 complete control
Source text: as §1, §2

[5] = tested on: pigweed (Amaranthus retroflexus); test: as above; conditions: 0 to 100 scale, 0 no effect, 100 complete control
Source text: as §1, §2

[6] = tested on: galium (catchweed bedstraw, Galium aparine); test: as above; conditions: 0 to 100 scale, 0 no effect, 100 complete control
Source text: as §1, §2

[7] = tested on: barnyardgrass (Echinochloa crus-galli); test: as above; conditions: 0 to 100 scale, 0 no effect, 100 complete control
Source text: as §1, §2

[8] = tested on: blackgrass (Alopecurus myosuroides); test: as above; conditions: 0 to 100 scale, 0 no effect, 100 complete control
Source text: as §1, §2

[9] = tested on: wheat (Triticum aestivum); test: as above; conditions: 0 to 100 scale, 0 no effect, 100 complete control
Source text: as §1, §2

[10] = tested on: foxtail, giant (giant foxtail, Setaria faberii); test: Test A preemergence, directed soil spray, visual injury rating; conditions: 0 is no effect, 100 is complete control
Source text: as §1, §2

[11] = tested on: ragweed (common ragweed, Ambrosia elatior); test: as above; conditions: 0 is no effect, 100 is complete control
Source text: as §1, §2

[12] = tested on: ryegrass, It. (Italian ryegrass, Lolium multiflorum); test: as above; conditions: 0 is no effect, 100 is complete control
Source text: as §1, §2

kochia (Kochia scoparia) [13] = test: as above; conditions: 0 is no effect, 100 is complete control
Source text: as §1, §2

[14] = tested on: pigweed (Amaranthus retroflexus); test: as above; conditions: 0 is no effect, 100 is complete control
Source text: as §1, §2

[15] = tested on: barnyardgrass (Echinochloa crus-galli); test: as above; conditions: 0 is no effect, 100 is complete control
Source text: as §1, §2

[16] = tested on: ducksalad (Heteranthera limosa); test: Test B flooded paddy test, visual rating; conditions: Flood, 250 g ai/ha, applied to paddy water, rated after 13 to 15 d
Protocol: (§3) Plant species in the flooded paddy test selected from rice (Oryza sativa), sedge, umbrella (small-flower umbrella sedge, Cyperus difformis), ducksalad (Heteranthera limosa), and barnyardgrass (Echinochloa crus-galli) were grown to the 2-leaf stage for testing. At time of treatment, test pots were flooded to 3 cm above the soil surface, treated by application of test compounds directly to the paddy water, and then maintained at that water depth for the duration of the test. Treated plants and controls were maintained in a greenhouse for 13 to 15 d, after which time all species were compared to controls and visually evaluated. Plant response ratings, summarized in Table B, are based on a scale of 0 to 100 where 0 is no effect and 100 is complete control. A dash (-) response means no test result.

rice (Oryza sativa) = test: Test B flooded paddy test, visual rating; conditions: Flood, 250 g ai/ha, applied to paddy water, rated after 13 to 15 d
Protocol: as §3

[17] = tested on: barnyardgrass (Echinochloa crus-galli); test: Test B flooded paddy test, visual rating; conditions: Flood, 250 g ai/ha, applied to paddy water, rated after 13 to 15 d
Protocol: as §3

[18] = tested on: sedge, umbrella (small-flower umbrella sedge, Cyperus difformis); test: Test B flooded paddy test, visual rating; conditions: Flood, 250 g ai/ha, applied to paddy water, rated after 13 to 15 d
Protocol: as §3

Compound | Corn plant response rating (corn (Zea mays); 125 g ai/ha) | Corn plant response rating (corn (Zea mays); 500 g ai/ha) | Foxtail, Giant plant response rating ([1]; 125 g ai/ha) | Foxtail, Giant plant response rating ([1]; 500 g ai/ha) | Ragweed plant response rating ([2]; 125 g ai/ha) | Ragweed plant response rating ([2]; 500 g ai/ha) | Ryegrass, It. plant response rating ([3]; 125 g ai/ha) | Ryegrass, It. plant response rating ([3]; 500 g ai/ha) | Kochia plant response rating (kochia (Kochia scoparia) [4]; 125 g ai/ha) | Kochia plant response rating (kochia (Kochia scoparia) [4]; 500 g ai/ha) | Pigweed plant response rating ([5]; 125 g ai/ha) | Pigweed plant response rating ([5]; 500 g ai/ha) | Galium plant response rating ([6]; 125 g ai/ha) | Galium plant response rating ([6]; 500 g ai/ha) | Barnyardgrass plant response rating ([7]; 125 g ai/ha) | Barnyardgrass plant response rating ([7]; 500 g ai/ha) | Blackgrass plant response rating ([8]; 125 g ai/ha) | Blackgrass plant response rating ([8]; 500 g ai/ha) | Wheat plant response rating ([9]; 125 g ai/ha) | Wheat plant response rating ([9]; 500 g ai/ha) | also measured
Cc1ccc2ccoc2c1-c1c(O)c(C)nn(C)c1=O [Compound 7] | 0 | 60 | 80 | 90 | 90 | 90 | 100 | 100 | 100 | 100 | 90 | 90 | 100 | 100 | 30 | 80 | 80 | 90 | 20 | 70 | Plant response rating (0 to 100 scale), Foxtail, Giant ([10]; 125 g ai/ha): 20; Plant response rating (0 to 100 scale), Foxtail, Giant ([10]; 500 g ai/ha): 90; Plant response rating (0 to 100 scale), Ragweed ([11]; 125 g ai/ha): 40; Plant response rating (0 to 100 scale), Ragweed ([11]; 500 g ai/ha): 90; Plant response rating (0 to 100 scale), Ryegrass, It. ([12]; 125 g ai/ha): 100; Plant response rating (0 to 100 scale), Ryegrass, It. ([12]; 500 g ai/ha): 100; Plant response rating (0 to 100 scale), Kochia (kochia (Kochia scoparia) [13]; 125 g ai/ha): 30; Plant response rating (0 to 100 scale), Kochia (kochia (Kochia scoparia) [13]; 500 g ai/ha): 90; Plant response rating (0 to 100 scale), Pigweed ([14]; 125 g ai/ha): 100; Plant response rating (0 to 100 scale), Pigweed ([14]; 500 g ai/ha): 100; Plant response rating (0 to 100 scale), Barnyardgrass ([15]; 125 g ai/ha): 10; Plant response rating (0 to 100 scale), Barnyardgrass ([15]; 500 g ai/ha): 90; Ducksalad plant response rating (0 to 100 scale, 0 is no effect, 100 is complete control) [16]: 0; Rice plant response rating (0 to 100 scale, 0 is no effect, 100 is complete control) (rice (Oryza sativa)): 0; Barnyardgrass plant response rating (0 to 100 scale, 0 is no effect, 100 is complete control) [17]: 0; Sedge, Umbrella plant response rating (0 to 100 scale, 0 is no effect, 100 is complete control) [18]: 0
CC(=O)Oc1c(C)nn(C)c(=O)c1-c1cncc2ccccc12 [Compound 8] | 0 | 0 | 0 | 20 | 0 | 0 | 0 | 30 | 30 | 80 | 70 | 80 | 10 | 80 | 0 | 20 | 0 | 0 | 0 | 0 | Plant response rating (0 to 100 scale), Foxtail, Giant ([10]; 125 g ai/ha): 0; Plant response rating (0 to 100 scale), Foxtail, Giant ([10]; 500 g ai/ha): 20; Plant response rating (0 to 100 scale), Ragweed ([11]; 125 g ai/ha): 0; Plant response rating (0 to 100 scale), Ragweed ([11]; 500 g ai/ha): 0; Plant response rating (0 to 100 scale), Ryegrass, It. ([12]; 125 g ai/ha): 0; Plant response rating (0 to 100 scale), Ryegrass, It. ([12]; 500 g ai/ha): 30; Plant response rating (0 to 100 scale), Kochia (kochia (Kochia scoparia) [13]; 125 g ai/ha): 0; Plant response rating (0 to 100 scale), Kochia (kochia (Kochia scoparia) [13]; 500 g ai/ha): 0; Plant response rating (0 to 100 scale), Pigweed ([14]; 125 g ai/ha): 20; Plant response rating (0 to 100 scale), Pigweed ([14]; 500 g ai/ha): 70; Plant response rating (0 to 100 scale), Barnyardgrass ([15]; 125 g ai/ha): 0; Plant response rating (0 to 100 scale), Barnyardgrass ([15]; 500 g ai/ha): 0; Ducksalad plant response rating (0 to 100 scale, 0 is no effect, 100 is complete control) [16]: 0; Rice plant response rating (0 to 100 scale, 0 is no effect, 100 is complete control) (rice (Oryza sativa)): 0; Barnyardgrass plant response rating (0 to 100 scale, 0 is no effect, 100 is complete control) [17]: 0; Sedge, Umbrella plant response rating (0 to 100 scale, 0 is no effect, 100 is complete control) [18]: 0
Cc1nn(C)c(=O)c(-c2c(C)sc3ncccc23)c1OC(=O)OC(C)C [Compound 15] | 0 | 0 | 0 | 0 | 0 | 0 | 0 | 0 | 0 | 0 | 0 | 0 | 0 | 0 | 0 | 0 | 0 | 0 | 0 | 0 | Plant response rating (0 to 100 scale), Foxtail, Giant ([10]; 125 g ai/ha): 0; Plant response rating (0 to 100 scale), Foxtail, Giant ([10]; 500 g ai/ha): 0; Plant response rating (0 to 100 scale), Ragweed ([11]; 125 g ai/ha): 0; Plant response rating (0 to 100 scale), Ragweed ([11]; 500 g ai/ha): 0; Plant response rating (0 to 100 scale), Ryegrass, It. ([12]; 125 g ai/ha): 0; Plant response rating (0 to 100 scale), Ryegrass, It. ([12]; 500 g ai/ha): 0; Plant response rating (0 to 100 scale), Kochia (kochia (Kochia scoparia) [13]; 125 g ai/ha): 0; Plant response rating (0 to 100 scale), Kochia (kochia (Kochia scoparia) [13]; 500 g ai/ha): 0; Plant response rating (0 to 100 scale), Pigweed ([14]; 125 g ai/ha): 0; Plant response rating (0 to 100 scale), Pigweed ([14]; 500 g ai/ha): 0; Plant response rating (0 to 100 scale), Barnyardgrass ([15]; 125 g ai/ha): 0; Plant response rating (0 to 100 scale), Barnyardgrass ([15]; 500 g ai/ha): 0; Ducksalad plant response rating (0 to 100 scale, 0 is no effect, 100 is complete control) [16]: 0; Rice plant response rating (0 to 100 scale, 0 is no effect, 100 is complete control) (rice (Oryza sativa)): 0; Barnyardgrass plant response rating (0 to 100 scale, 0 is no effect, 100 is complete control) [17]: 0; Sedge, Umbrella plant response rating (0 to 100 scale, 0 is no effect, 100 is complete control) [18]: 0
COc1ncc(-c2c(O)c(C)nn(C)c2=O)c2ccccc12 [Compound 16] | 0 | 0 | 0 | 0 | 30 | 70 | 90 | 100 | 70 | 100 | 40 | 70 | 70 | 100 | 0 | 10 | 0 | 20 | 0 | 0 | Plant response rating (0 to 100 scale), Foxtail, Giant ([10]; 125 g ai/ha): 0; Plant response rating (0 to 100 scale), Foxtail, Giant ([10]; 500 g ai/ha): 0; Plant response rating (0 to 100 scale), Ragweed ([11]; 125 g ai/ha): 30; Plant response rating (0 to 100 scale), Ragweed ([11]; 500 g ai/ha): 70; Plant response rating (0 to 100 scale), Ryegrass, It. ([12]; 125 g ai/ha): 80; Plant response rating (0 to 100 scale), Ryegrass, It. ([12]; 500 g ai/ha): 90; Plant response rating (0 to 100 scale), Kochia (kochia (Kochia scoparia) [13]; 125 g ai/ha): 40; Plant response rating (0 to 100 scale), Kochia (kochia (Kochia scoparia) [13]; 500 g ai/ha): 100; Plant response rating (0 to 100 scale), Pigweed ([14]; 125 g ai/ha): 30; Plant response rating (0 to 100 scale), Pigweed ([14]; 500 g ai/ha): 100; Plant response rating (0 to 100 scale), Barnyardgrass ([15]; 125 g ai/ha): 0; Plant response rating (0 to 100 scale), Barnyardgrass ([15]; 500 g ai/ha): 0; Ducksalad plant response rating (0 to 100 scale, 0 is no effect, 100 is complete control) [16]: 0; Rice plant response rating (0 to 100 scale, 0 is no effect, 100 is complete control) (rice (Oryza sativa)): 0; Barnyardgrass plant response rating (0 to 100 scale, 0 is no effect, 100 is complete control) [17]: 0; Sedge, Umbrella plant response rating (0 to 100 scale, 0 is no effect, 100 is complete control) [18]: 0
